The record followed here is US10315990B2, “Isothiocyanate compounds and isothiocyanate XPO1 protein inhibitor drugs thereof” (DRIVINGFORCE THERAPEUTICS Co., Ltd., priority 2015, dated 2019).

Holding throughout (type): cell-based
One test concerns Jeko-1. In words: Inhibitory activity for high metastasis type lymphoma cell line (MTT or CCK-8). The conditions noted are these: Homo sapiens; Jeko-1, 72 hours; read-out: IC50. The procedure: (§1) Jeko-1, Raji and U2932 are three typical high metastasis type lymphoma cell lines. The lymphoma cell line was inoculated on 96-well cell culture plate in an amount of 6000 cells per well and cultured at 37° C. for 24 hours, and then treated solely with the compound added therein and cultured. Seventy-two hours later, MTT or CCK-8 method was used to detect the inhibitory activity of the compound for the two high metastasis type lymphoma cell lines.

In another test the test system is U2932. Described as above. The conditions noted are these: Homo sapiens; U2932, 72 hours; read-out: IC50. Here is the method:
as §1

For the next test, the system named is Raji. The test is described as above. As to conditions: Homo sapiens, 72 hours, read-out: IC50. The procedure:
as §1

The next test concerns CaSki. Briefly: Inhibitory activity for other high metastasis type cancer cell line (MTT or CCK-8). As to conditions: Homo sapiens, Ca-Ski; CaSki, 72 hours; read-out: IC50.
A further test deals with Panc-1. Described as above. The conditions noted are these: Homo sapiens; Panc-1, 72 hours; read-out: IC50.
The next test deals with HMLE-Snail cell line. Briefly: Formation of HMLE-Snail cell line spheroids. The conditions noted are these: 10 μg/ml, treated for 24 hours; control = 100; read-out: Colony (%): cell colony number of drug-treated group/cell colony number of control group × 100%.

By IC50 is commonly meant the concentration that inhibits the measured activity by half. Regarding `C[S+]([O-])CCCCN=C=S` (stereo not drawn) [SFN, sulforaphane, reference compound], the IC50 in the test on Jeko-1 worked out at 10.1 µM; in the test with U2932, 13.4 µM; in the test on Raji it was 11 µM; in the test on CaSki, 11 µM; with Panc-1 it was 12.1 µM. Also, the activity at 10 µg/mL in the test with HMLE-Snail cell line came to 90%.
